Reference: patent US20220362279A1, “USE OF OLIGONUCLEOTIDES FOR THE TREATMENT AND PREVENTION OF PAIN” (CONSEJO NACIONAL DE INVESTIGACIONES CIENTÍFICAS Y TÉCNICAS, priority 2018, published 2022)
“Also recorded” adds a separate entry of the source. Strand notation (5' to 3'): a small letter for the sugar, then the base; units joined by * are phosphorothioate-linked, units joined directly phosphodiester-linked; [ ] holds rarer units or linkages, { } end groups; capitals alone tell only the bases. d = 2'-deoxy (DNA)

Tests used:
Assay type in all cases: in vivo, rat
[1] = test system: rats with hind paw inflammation (CFA rats); experiment: Hind paw dorsoventral thickness in rats with CFA-induced hind paw inflammation; details: preventive IMT504 before CFA; whole tested period
Method: In fifty-two rats anesthetized with Isoflurane (5% induction, 2.5% maintenance, 0.8 L/min O2 flow rate; Piramal Healthcare, UK), the right hind paw was injected intra-dermally with 100 μl of CFA (1:1, dissolved in normal saline; Sigma-Aldrich, Mo., USA), using a 1 ml syringe with a 25G needle attached. The animals (from now on, called CFA rats) were left to recover from anesthesia in a warm and quiet environment before relocating them in their corresponding cages.
In one set of experiments, called “preventive treatment”, four rats received a daily dose of 20 mg/kg IMT504 for five consecutive days and four weeks later one dose of 6 mg/kg (group a); a second group of four rats received one dose of 6mg/kg of IMT504 (group b) (FIG. 1A). Three days after the single injection of 6 mg/kg IMT504, all eight rats received intra-plantar CFA, after which they were tested for mechanical and cold allodynia during 21 days. At day 28, group b received an additional administration of IMT504 at a dose of 3 mg/kg and was evaluated until day 35. […]
Eight rats received a dose of 6 mg/kg IMT504 (FIGS. 2 and 3). […] On day 28 (FIG. 1) or 28 (FIG. 2), rats receiving preventive IMT504 were administered additional IMT504 at a dose of 3 mg/kg (FIG. 1) or 2 mg/kg (FIG. 2), and assessed until days 21-35.

[2] = test system: rats with post-incisional pain; experiment: Cold allodynia in rats with post-incisional pain (plantar incision); details: 6 mg/kg s.c. 48 h and 24 h before incision; particularly apparent 3 days after injury
Description: In twenty-four rats anesthetized with Isoflurane (5% induction, 2.5% maintenance, 0.8 L/min O2 flow rate; Scott-Cassara, Argentina), the right hind paw plantar skin was cleaned and disinfected. This was followed by a 1-cm longitudinal incision distal to heel and extending towards the toes, as previously described (Xu J, et al., 2011, 24(5): 508-514). The incision involved both plantar skin and fascia. This was followed by identification and longitudinal incision of plantar […] muscle, leaving its insertions intact. After achieving homeostasica, skin was sutured using a 5-0 nylon suture, protected with an antibacterial cream and the animal was returned to its retention cage, under observation, until full recovery from anesthesia.
Rats were subcutaneously administered 6 mg/kg of IMT504, 48 and 24 h before implementing the post-incisional pain model. This was followed by pain-like behavior testing for up to 21 days after injury.
For cold allodynia assessment, the reaction to the application of a drop of acetone onto the plantar surface of the hind paw was used, as previously described. Frequency of withdrawal to cold stimuli was measured.

rats with SNI = experiment: Mechanical allodynia in rats with spared nerve injury (SNI); details: single dose of 6 mg/kg seven days after SNI, s.c.
Description: In twenty-six rats anesthetized with Isoflurane (5% induction, 2.5% maintenance, 0.8 L/min O2 flow rate; Piramal Healthcare, UK), the right sciatic nerve and its three distal branches were exposed by blunt dissection, and the tibial and common peronneal branches completely sectioned and ligated to prevent regeneration. The third branch, the sural nerve, was left intact. The animals received one single injection of ketoprofen for post-surgical pain control and were left to recover from anesthesia in a warm and quiet environment before relocating them in their corresponding cages.
Rats were administered subcutaneously using the LT protocol (FIG. 4A) and a single dose of 6 mg/kg of IMT504. This was followed by pain-like behavior testing for up to six weeks after SNI.
Naïve (uninjured and untreated; n=16), CFA injured untreated (n=10), and vehicle-treated CFA (n=9) or SNI rats (n=10) were used as controls. Eight naïve rats remained untreated, four were vehicle-treated, and four received a daily dose of 20 mg/kg IMT504 for five consecutive days. Untreated CFA rats received an intradermal hind paw injection of CFA and no further treatment. Vehicle-treated CFA rats received five daily subcutaneous injections of saline (200 μl), starting seven days after injury. Vehicle-treated SNI rats received one single dose of saline (200 ul), starting seven days after injury. […]

[3] = test system: rats with postsurgical pain (plantar incision); experiment: Naloxone challenge in IMT504-pre-treated rats with plantar incision, mechanical withdrawal threshold
Method: In all experiments, the oligodeoxynucleotide (ODN) IMT504, with sequence 5′-[sequence]-3′ (SEQ ID No 1) was used. The HPLC-grade phosphorothioate ODN (Biosynthesis Inc., Lewisville, Tex., USA) was suspended in sterile saline solution (VEH, 0.9% NaCl; 20 mg/ml; storage concentration) and assayed for LPS contamination. Working concentration doses (6 mg/kg) were obtained by additional dissolving in sterile VEH. The ODN was administered subcutaneously, at a final volume of 200-300 μl, depending on animal weight.
A group of rats also received an intraperitoneal (i.p.) injection of naloxone hydrochloride (Narxona 0.4 mg/ml; Scott-Cassara, Bs. As., Argentina), at a dose of 2 mg/kg, in order to test if the effect of IMT504 could be blocked by the pan-opioid receptor antagonist.
The rat hind paw plantar incision model of postoperative pain was used as previously described [Brennan, T. J., E. P. Vandermeulen, and G. F. Gebhart, Characterization of a rat model of incisional pain. […] Briefly, rats were anesthetized using isoflurane (5% induction, 2.5% maintenance, 0.8 l/min O2 flow rate; Piramal Healthcare, UK) and the plantar aspect of the right hind paw was disinfected with povidone iodine. A 1.0-cm longitudinal incision was made 0.5 cm from the end of the heel. The underlying flexor muscle was also incised longitudinally, allowing the muscle origin and insertion to remain intact. After hemostasis by gentle pressure, the skin was closed with sutures of 5-0 nylon.
Rats were divided into injured rats receiving IMT504 (6 mg/kg, dissolved in VEH) or VEH alone, 48h and 24 h prior to surgery. […]
Mechanical withdrawal thresholds were assessed by using von Frey nylon monofilaments of different bending forces (1.4, 2, 6, 8, 10, 15 and 26 g; Stoelting Inc., Wooddale, USA) and the modified up-down method of Dixon, as described by Chaplan and cols. (Chaplan, S. R., et al., Quantitative assessment of tactile allodynia in the rat paw. J Neurosci Methods, 1994. 53(1): p. 55-63) , to establish the 50% withdrawal threshold. […]

naïve rats = experiment: Tail immersion test (tail heat nociception) in naïve rats; details: 20 mg/kg daily x5; observed up to 22 days; 52° C. bath
Method: Naïve (uninjured and untreated; n=16), CFA injured untreated (n=10), and vehicle-treated CFA (n=9) or SNI rats (n=10) were used as controls. Eight naïve rats remained untreated, four were vehicle-treated, and four received a daily dose of 20 mg/kg IMT504 for five consecutive days. Untreated CFA rats received an intradermal hind paw injection of CFA and no further treatment. Vehicle-treated CFA rats received five daily subcutaneous injections of saline (200 μl), starting seven days after injury. Vehicle-treated SNI rats received one single dose of saline (200 ul), starting seven days after injury.
For acute thermal nociception assessment, the tail immersion test was used. The latency of tail-flick reflex to swift immersion of the last 3 cm of the tip of the tail of each rat on a hot bath (52° C.) was measured using a stopwatch (resolution of 0.01 s). This was repeated three times, with 10 s intervals, and an average response was obtained.

Substance: IMT504: synthetic phosphorothioate oligodeoxynucleotide with sequence 5′-TCATCATTTTGTCATTTTGTCATT-3′ (SEQ ID No 1) (DNA dT*dC*dA*dT*dC*dA*dT*dT*dT*dT*dG*dT*dC*dA*dT*dT*dT*dT*dG*dT*dC*dA*dT*dT)
- effect on hind paw inflammation (dorsoventral paw thickness) [1]: does not prevent occurrence of inflammation; also recorded: did not seem to alter the natural course of hind paw inflammation; also recorded: without altering the inflammatory state of the affected hind paw
- cold allodynia after plantar incision [2]: significant reduction in cold allodynia
- full recovery of mechanical withdrawal thresholds (rats with SNI): fully recovered from week three and onwards
- time from which mechanical withdrawal thresholds are almost at basal levels (rats with SNI): 12 days after injury
- anti-allodynic effect of IMT504 under systemic non-selective opioid receptor antagonist ([3]; naloxone 2 mg/kg i.p. at day 3 after injury (FIG. 18)): temporarily blocked
- mechanical allodynia on day 3 after injury ([3]; two doses of pre-emptive IMT504 (6 mg/kg, 48 h and 24 h before surgery)): completely abolished
- tail thermal withdrawal latency in naïve rats (naïve rats): did not shown changes; also recorded: did not show any evident changes
